In PMC7718943, “In silico molecular target prediction unveils mebendazole as a potent MAPK14 inhibitor” (Molecular Oncology, 2020):
Read-outs that look alike come from different tables or passages of the source.

How the values were obtained:
MAPK14 (MAPK14/p38α) = target: T1, MAPK14 (MAPK14/p38α) (Homo sapiens, UniProt Q16539); assay: ADP-Glo kinase assay; type: biochemical; conditions: read-out: IC50 value (μM) ± SD / MAPK14
T1 construct: commercial enzyme of Promega kinase assay

ERK2 (MAPK1) = target: T2, ERK2 (MAPK1) (Homo sapiens, UniProt P28482); assay: ADP-Glo kinase assay; type: biochemical; conditions: read-out: IC50 value (μM) ± SD / ERK2
T2 construct: commercial enzyme of Promega kinase assay
Description: ADP-Glo kinase assay on ERK2 (MAPK1)

ABL1 = target: T3, ABL1 (Homo sapiens, UniProt P00519); assay: ADP-Glo kinase assay; type: biochemical
T3 construct: commercial enzyme of Promega kinase assay

[1] = target: T4, MAPK14 (wild-type, His-tagged, pET28a) (Homo sapiens, UniProt Q16539); assay: isothermal titration calorimetry; type: binding
T4 construct: wild type, pET28a vector, His tag conserved for ITC and TSA

[2] = target: T4, MAPK14 (wild-type, His-tagged, pET28a); assay: fluorescence thermal shift assay; type: binding; conditions: read-out: dTm
[3] = read-out: IC50 value (μM) ± SD / ABL1

T2 sequence (P28482 2-360): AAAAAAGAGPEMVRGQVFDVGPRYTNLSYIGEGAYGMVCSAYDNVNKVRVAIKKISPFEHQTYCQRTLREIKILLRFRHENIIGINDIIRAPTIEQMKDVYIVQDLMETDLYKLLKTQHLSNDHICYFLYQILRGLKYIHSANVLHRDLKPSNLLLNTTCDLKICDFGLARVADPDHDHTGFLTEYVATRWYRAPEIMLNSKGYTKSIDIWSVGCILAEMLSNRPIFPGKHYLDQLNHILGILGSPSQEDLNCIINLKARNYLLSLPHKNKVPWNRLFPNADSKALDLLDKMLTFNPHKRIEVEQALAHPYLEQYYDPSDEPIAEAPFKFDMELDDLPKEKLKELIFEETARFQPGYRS
T3 sequence (P00519 whole entry): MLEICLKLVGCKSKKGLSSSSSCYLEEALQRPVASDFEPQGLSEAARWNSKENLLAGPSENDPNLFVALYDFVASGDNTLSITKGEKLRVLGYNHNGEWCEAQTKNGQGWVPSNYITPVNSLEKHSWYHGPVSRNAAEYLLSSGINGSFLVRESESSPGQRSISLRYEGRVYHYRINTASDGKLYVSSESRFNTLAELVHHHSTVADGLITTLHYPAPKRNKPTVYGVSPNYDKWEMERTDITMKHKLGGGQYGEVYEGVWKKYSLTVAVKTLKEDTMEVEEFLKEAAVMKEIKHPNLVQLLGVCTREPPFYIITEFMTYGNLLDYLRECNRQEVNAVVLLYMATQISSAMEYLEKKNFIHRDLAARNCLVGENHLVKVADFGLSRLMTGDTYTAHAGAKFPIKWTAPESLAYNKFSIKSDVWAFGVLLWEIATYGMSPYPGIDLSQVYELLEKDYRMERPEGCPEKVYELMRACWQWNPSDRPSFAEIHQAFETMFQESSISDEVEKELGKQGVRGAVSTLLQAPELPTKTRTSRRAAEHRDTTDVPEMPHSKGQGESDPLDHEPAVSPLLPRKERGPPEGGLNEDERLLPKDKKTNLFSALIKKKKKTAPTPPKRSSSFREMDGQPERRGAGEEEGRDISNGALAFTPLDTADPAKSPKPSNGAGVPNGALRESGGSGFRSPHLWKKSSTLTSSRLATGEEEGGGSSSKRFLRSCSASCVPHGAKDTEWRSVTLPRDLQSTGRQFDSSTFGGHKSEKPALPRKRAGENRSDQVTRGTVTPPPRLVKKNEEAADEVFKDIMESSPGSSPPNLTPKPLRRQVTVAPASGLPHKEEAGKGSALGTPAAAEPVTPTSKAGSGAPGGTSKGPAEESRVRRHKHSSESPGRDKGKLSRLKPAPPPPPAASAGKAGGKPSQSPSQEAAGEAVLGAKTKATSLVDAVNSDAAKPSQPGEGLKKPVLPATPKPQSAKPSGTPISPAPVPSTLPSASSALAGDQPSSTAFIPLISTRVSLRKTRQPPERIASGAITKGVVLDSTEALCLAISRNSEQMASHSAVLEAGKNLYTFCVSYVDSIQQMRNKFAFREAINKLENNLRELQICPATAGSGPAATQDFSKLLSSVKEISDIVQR
T1 sequence (Q16539 2-360): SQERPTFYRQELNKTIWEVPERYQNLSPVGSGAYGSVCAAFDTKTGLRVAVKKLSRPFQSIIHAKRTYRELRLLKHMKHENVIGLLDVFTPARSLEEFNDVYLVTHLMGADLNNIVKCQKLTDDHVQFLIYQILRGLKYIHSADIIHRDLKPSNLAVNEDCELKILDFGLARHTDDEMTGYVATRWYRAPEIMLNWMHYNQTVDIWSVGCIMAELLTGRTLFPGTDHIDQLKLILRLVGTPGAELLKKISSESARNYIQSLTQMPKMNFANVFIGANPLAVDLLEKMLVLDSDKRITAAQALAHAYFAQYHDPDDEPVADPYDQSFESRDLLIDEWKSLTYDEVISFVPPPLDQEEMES
T4 sequence (Q16539 whole entry): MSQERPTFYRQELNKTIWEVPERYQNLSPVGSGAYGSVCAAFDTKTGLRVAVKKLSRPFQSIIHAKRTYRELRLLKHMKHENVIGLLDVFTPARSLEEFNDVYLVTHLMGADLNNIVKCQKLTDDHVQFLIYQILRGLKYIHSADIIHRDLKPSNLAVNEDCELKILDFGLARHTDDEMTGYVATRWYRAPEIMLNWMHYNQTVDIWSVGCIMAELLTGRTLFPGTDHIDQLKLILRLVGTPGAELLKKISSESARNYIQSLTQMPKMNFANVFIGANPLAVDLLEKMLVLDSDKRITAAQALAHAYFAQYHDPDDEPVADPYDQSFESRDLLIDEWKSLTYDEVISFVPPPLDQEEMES

| Structure (SMILES) | IC50 (ERK2 (MAPK1)) [µM] | IC50 (ABL1; [3]) [µM] | Kd [1] [µM] | ΔTm at 50 µM [2] [°C] | IC50 (MAPK14 (MAPK14/p38α)) [µM] | IC50 (ABL1; read-out: IC50) [µM] |
| --- | --- | --- | --- | --- | --- | --- |
| COC(=O)Nc1nc2ccc(C(=O)c3cccs3)cc2[nH]1 [Nocodazole] | 26.9 ± 16.2 |  |  |  | 2.8 ± 5.6 | 0.078 ± 0.034 |
| CCCSc1ccc2nc(NC(=O)OC)[nH]c2c1 [Albendazole] | 3.4 ± 1.5 | 0.9 ± 0.6 |  |  | > 50 |  |

Continued, in another order:

| IC50 (ERK2 (MAPK1)) [µM] | IC50 (ABL1; [3]) [µM] | Kd [1] [µM] | ΔTm at 50 µM [2] [°C] | Structure (SMILES) | IC50 (MAPK14 (MAPK14/p38α)) [µM] | IC50 (ABL1; read-out: IC50) [µM] |
| --- | --- | --- | --- | --- | --- | --- |
| 24.7 ± 10.4 | 0.35 ± 0.12 | 1.27 ± 0.02 | 3.7 | COC(=O)Nc1nc2ccc(C(=O)c3ccccc3)cc2[nH]1 [Mebendazole] |  |  |
| 15.9 ± 8 | 0.11 ± 0.05 |  |  | COC(=O)Nc1nc2cc(C(=O)c3ccc(F)cc3)ccc2[nH]1 [Flubendazole] | 5.5 ± 2.7 |  |
| > 50 | 0.19 ± 0.07 |  |  | COC(=O)Nc1nc2ccc(Sc3ccccc3)cc2[nH]1 [Fenbendazole] | 10.7 ± 4.9 |  |
